Results: US20240425453A1, “ISOINDOLINES AS PMS2 INHIBITORS” (NeoPhore Limited, priority 2021, published 2024)
Structures can show the parent of a compound that is named as a salt.

Molecular target: recombinant N-terminal PMS2 (residues 1-365) (Homo sapiens (Human), UniProt P54278)
Test: Fluorescence polarisation assay for PMS2
Assay type: binding
Conditions: 10 nM N-terminal PMS2, 5 nM fluorescent probe compound; 30 min pre-incubation, read after 1 hour at room temperature

Chain of recombinant N-terminal PMS2 (residues 1-365) (P54278 1-365): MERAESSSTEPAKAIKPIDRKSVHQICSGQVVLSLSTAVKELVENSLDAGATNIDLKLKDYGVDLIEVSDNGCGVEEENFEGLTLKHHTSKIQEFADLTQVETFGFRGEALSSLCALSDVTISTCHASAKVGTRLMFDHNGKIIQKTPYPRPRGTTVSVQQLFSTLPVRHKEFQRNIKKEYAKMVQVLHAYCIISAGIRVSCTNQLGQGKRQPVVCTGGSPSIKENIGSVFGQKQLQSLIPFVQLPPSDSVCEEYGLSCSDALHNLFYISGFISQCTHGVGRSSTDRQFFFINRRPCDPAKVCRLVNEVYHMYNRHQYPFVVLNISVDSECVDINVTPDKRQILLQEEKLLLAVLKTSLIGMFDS

Structure (SMILES)	IC50 [nM]
Cc1c(O)cc(O)c(C(=O)N2Cc3cccc(NC(=O)/C=C/CN(C)C)c3C2)c1OCC1CC1 [Example 24, (E)-N-[2-[2-(cyclopropylmethoxy)-4,6-dihydroxy-3-methyl-benzoyl]isoindolin-4-yl]-4-(dimethylamino)but-2-enamide]	< 100
C=CC(=O)Nc1ccc2c(c1)CN(C(=O)c1c(O)cc(O)c(C)c1OCC1CCCCC1)C2 [Example 16, N-[2-[2-(Cyclohexylmethoxy)-4,6-dihydroxy-3-methyl-benzoyl]isoindolin-5-yl]prop-2-enamide]	< 100
C=CC(=O)Nc1cccc2c1CN(C(=O)c1c(O)cc(O)c(C)c1OCC1CCCCC1)C2 [Example 7, N-(2-(2-(Cyclohexylmethoxy)-4,6-dihydroxy-3-methylbenzoyl)isoindolin-4-yl) acrylamide]	< 100
Cc1c(O)cc(O)c(C(=O)N2Cc3cccc(NC(=O)/C=C/CN4CCCC4)c3C2)c1OCC1CCCCC1 [Example 9, (E)-N-(2-(2-(Cyclohexylmethoxy)-4,6-dihydroxy-3-methylbenzoyl)isoindolin-4-yl)-4-(pyrrolidin-1-yl)but-2-enamide]	< 100
CC#CC(=O)Nc1cccc2c1CN(C(=O)c1c(O)cc(O)c(C)c1OCC1CCCCC1)C2 [Example 12, N-(2-(2-(Cyclohexylmethoxy)-4,6-dihydroxy-3-methylbenzoyl)isoindolin-4-yl)but-2-ynamide]	100 to 1000
Cc1c(O)cc(O)c(C(=O)N2Cc3cccc(NC(=O)/C=C/CN(C)C)c3C2)c1OCc1ccccc1 [Example 6, (E)-N-(2-(2-(Benzyloxy)-4,6-dihydroxy-3-methylbenzoyl)isoindolin-4-yl)-4-(dimethylamino)but-2-enamide]	< 100
Cc1c(O)cc(O)c(C(=O)N2Cc3ccc(NC(=O)/C=C/CN(C)C)cc3C2)c1OCC1CCCCC1 [Example 19, (E)-N-[2-[2-(Cyclohexylmethoxy)-4,6-dihydroxy-3-methyl-benzoyl]isoindolin-5-yl]-4-(dimethylamino)but-2-enamide]	100 to 1000
Cc1c(O)cc(O)c(C(=O)N2Cc3cccc(NC(=O)/C=C/CN4CCOCC4)c3C2)c1OCC1CCCCC1 [Example 10, (E)-N-(2-(2-(cyclohexylmethoxy)-4,6-dihydroxy-3-methylbenzoyl)isoindolin-4-yl)-4-morpholinobut-2-enamide hydrochloride]	< 100
C=CC(=O)Nc1ccc2c(c1)CN(C(=O)c1c(O)cc(O)c(C)c1OCC1CCCCC1)CC2 [Example 18, N-[2-[2-(Cyclohexylmethoxy)-4,6-dihydroxy-3-methyl-benzoyl]-3,4-dihydro-1H-isoquinolin-7-yl]prop-2-enamide]	< 100
COc1c(C)c(O)cc(O)c1C(=O)N1Cc2cccc(OC/C=C/C(=O)N(C)C)c2C1 [Example 35, (E)-4-((2-(4,6-Dihydroxy-2-methoxy-3-methylbenzoyl)isoindolin-4-yl)oxy)-N,N-dimethylbut-2-enamide]	100 to 1000
C/C=C/C(=O)Nc1cccc2c1CN(C(=O)c1c(O)cc(O)c(C)c1OCC1CCCCC1)C2 [Example 13, (E)-N-(2-(2-(Cyclohexylmethoxy)-4,6-dihydroxy-3-methylbenzoyl)isoindolin-4-yl)but-2-enamide]	> 1000
COc1c(C)c(O)cc(O)c1C(=O)N1CCc2ccc(NC(=O)/C=C/CN(C)C)cc2C1 [Example 28, (E)-N-[2-(4,6-dihydroxy-2-methoxy-3-methyl-benzoyl)-3,4-dihydro-1H-isoquinolin-7-yl]-4-(dimethylamino)but-2-enamide]	100 to 1000
COc1c(C)c(O)cc(O)c1C(=O)N1Cc2ccc(OC/C=C/C(=O)N(C)C)cc2C1 [Example 34, (E)-4-[2-(4,6-Dihydroxy-2-methoxy-3-methyl-benzoyl)isoindolin-5-yl]oxy-N,N-dimethyl-but-2-enamide]	100 to 1000
CCOc1c(C)c(O)cc(O)c1C(=O)N1Cc2cccc(NC(=O)/C=C/CN(C)C)c2C1 [Example 22, (E)-4-(Dimethylamino)-N-[2-(2-ethoxy-4,6-dihydroxy-3-methyl-benzoyl)isoindolin-4-yl]but-2-enamide]	< 100
Cc1c(O)cc(O)c(C(=O)N2Cc3cccc(N(C)C(=O)/C=C/CN(C)C)c3C2)c1OCC1CC1 [Example 31, (E)-N-[2-[2-(Cyclopropylmethoxy)-4,6-dihydroxy-3-methyl-benzoyl]isoindolin-4-yl]-4-(dimethylamino)-N-methyl-but-2-enamide]	100 to 1000
C=C(F)C(=O)Nc1cccc2c1CN(C(=O)c1c(O)cc(O)cc1OCc1ccccc1)C2 [Example 3, N-(2-(2-(Benzyloxy)-4,6-dihydroxy-benzoyl)isoindolin-4-yl)-2-fluoroacrylamide]	> 1000
CCOc1c(C)c(O)cc(O)c1C(=O)N1Cc2cccc(N(C)C(=O)/C=C/CN(C)C)c2C1 [Example 33, (E)-4-(Dimethylamino)-N-(2-(2-ethoxy-4,6-dihydroxy-3-methylbenzoyl)isoindolin-4-yl)-N-methylbut-2-enamide]	< 100

Structure (SMILES)	IC50 [nM]
C=CC(=O)Nc1cccc2c1CN(C(=O)c1c(O)cc(O)cc1OCc1ccccc1)C2 [Example 1, N-(2-(2-(Benzyloxy)-4,6-dihydroxybenzoyl)isoindolin-4-yl)acrylamide]	100 to 1000
Cc1c(O)cc(O)c(C(=O)N2Cc3cccc(NC(=O)/C=C/CN(C)C)c3C2)c1OCC1CCCCC1 [Example 8, (E)-N-(2-(2-(cyclohexylmethoxy)-4,6-dihydroxy-3-methylbenzoyl)isoindolin-4-yl)-4-(dimethylamino)but-2-enamide]	< 100
CN(C)C/C=C/C(=O)Nc1cccc2c1CN(C(=O)c1c(O)cc(O)cc1OCc1ccccc1)C2 [Example 2, (E)-N-(2-(2-(Benzyloxy)-4,6-dihydroxybenzoyl)isoindolin-4-yl)-4-(dimethylamino)but-2-enamide]	< 100
C=C(CN1CCOCC1)C(=O)Nc1cccc2c1CN(C(=O)c1c(O)cc(O)c(C)c1OC)C2 [Example 37, N-(2-(4,6-Dihydroxy-2-methoxy-3-methylbenzoyl)isoindolin-4-yl)-2-(morpholinomethyl)acrylamide]	100 to 1000
C=C(F)C(=O)Nc1cccc2c1CN(C(=O)c1c(O)cc(O)c(C)c1OCc1ccccc1)C2 [Example 5, N-(2-(2-(Benzyloxy)-4,6-dihydroxy-3-methylbenzoyl)isoindolin-4-yl)-2-fluoroacrylamide]	> 1000
COc1c(C)c(O)cc(O)c1C(=O)N1Cc2ccc(NC(=O)/C=C/CN(C)C)cc2C1 [Example 26, (E)-N-[2-(4,6-Dihydroxy-2-methoxy-3-methyl-benzoyl)isoindolin-5-yl]-4-(dimethylamino)but-2-enamide]	100 to 1000
Cc1c(O)cc(O)c(C(=O)N2CCc3cccc(NC(=O)/C=C/CN(C)C)c3C2)c1OCC1CCCCC1 [Example 20, (E)-N-[2-[2-(Cyclohexylmethoxy)-4,6-dihydroxy-3-methyl-benzoyl]-3,4-dihydro-1H-isoquinolin-8-yl]-4-(dimethylamino)but-2-enamide]	100 to 1000
Cc1c(O)cc(O)c(C(=O)N2Cc3cccc(NC(=O)/C=C/CN(C)C)c3C2)c1OCC(F)(F)F [Example 23, (E)-N-[2-[4,6-Dihydroxy-3-methyl-2-(2,2,2-trifluoroethoxy)benzoyl]isoindolin-4-yl]-4-(dimethylamino)but-2-enamide]	< 100
Cc1c(O)cc(O)c(C(=O)N2CCc3ccc(NC(=O)/C=C/CN(C)C)cc3C2)c1OCC1CCCCC1 [Example 21, (E)-N-[2-[2-(Cyclohexylmethoxy)-4,6-dihydroxy-3-methyl-benzoyl]-3,4-dihydro-1H-isoquinolin-7-yl]-4-(dimethylamino)but-2-enamide]	< 100
Cc1c(O)cc(O)c(C(=O)N2Cc3cccc(NC(=O)/C=C/CN(C)C)c3C2)c1OCC1CCCC1 [Example 14, (E)-N-[2-[2-(Cyclopentylmethoxy)-4,6-dihydroxy-3-methyl-benzoyl]isoindolin-4-yl]-4-(dimethylamino)but-2-enamide]	< 100
C=CC(=O)Nc1cccc2c1CN(C(=O)c1c(O)cc(O)c(C)c1OCC1CCCCC1)CC2 [Example 17, N-[2-[2-(Cyclohexylmethoxy)-4,6-dihydroxy-3-methyl-benzoyl]-3,4-dihydro-1H-isoquinolin-8-yl]prop-2-enamide]	100 to 1000
C=CC(=O)N(C)c1cccc2c1CN(C(=O)c1c(O)cc(O)c(C)c1OC)C2 [Example 32, N-[2-(4,6-dihydroxy-2-methoxy-3-methyl-benzoyl)isoindolin-4-yl]-N-methyl-prop-2-enamide]	100 to 1000
C=CC(=O)Nc1cccc2c1CN(C(=O)c1c(O)cc(O)c(C)c1OCc1ccccc1)C2 [Example 4, N-(2-(2-(Benzyloxy)-4,6-dihydroxy-3-methylbenzoyl)isoindolin-4-yl)acrylamide]	< 100
COc1c(C)c(O)cc(O)c1C(=O)N1Cc2ccc(N(C)C(=O)/C=C/CN(C)C)cc2C1 [Example 27, (E)-N-[2-(4,6-dihydroxy-2-methoxy-3-methyl-benzoyl)isoindolin-5-yl]-4-(dimethylamino)-N-methyl-but-2-enamide]	100 to 1000
COc1c(C)c(O)cc(O)c1C(=O)N1Cc2cccc(N(C)C(=O)/C=C/CN(C)C)c2C1 [Example 25, (E)-N-[2-(4,6-Dihydroxy-2-methoxy-3-methyl-benzoyl)isoindolin-4-yl]-4-(dimethylamino)-N-methyl-but-2-enamide]	< 100
COc1c(C)c(O)cc(O)c1C(=O)N1CCc2ccc(N(C)C(=O)/C=C/CN(C)C)cc2C1 [Example 29, (E)-N-[2-(4,6-dihydroxy-2-methoxy-3-methyl-benzoyl)-3,4-dihydro-1H-isoquinolin-7-yl]-4-(dimethylamino)-N-methyl-but-2-enamide]	100 to 1000
